# Literature values, collected in patent US9353109B2, “Flindersia alkaloids, derivatives and analogs: compositions and methods for producing the same” (UNIVERSITY OF HOUSTON SYSTEM, priority 2012, dated 2016).
# Tested on: chloroquine-resistant falciparum strains
# Details: at concentrations that do not affect mammalian cells' viability
row,Compound,effectiveness toward chloroquine-resistant falciparum strains
1,"C[C@@H]1CC[C@H]2[C@@H](C)C(=O)O[C@@H]3O[C@@]4(C)CC[C@@H]1[C@]32OO4 [artemisinin, reference compound]",show effectiveness toward chloroquine-resistant falciparum strains
2,"CCN(CC)CCCC(C)Nc1ccnc2cc(Cl)ccc12 (stereo not shown) [chloroquine, reference compound]",show effectiveness toward chloroquine-resistant falciparum strains
3,CNCCc1c(/C=C/[C@@]2(C)C[C@H](C=C(C)C)c3c(CCNC)c4ccccc4n32)[nH]c2ccccc12 [flinderole A],show effectiveness toward chloroquine-resistant falciparum strains
4,CC(C)=C[C@H]1C[C@](C)(/C=C/c2[nH]c3ccccc3c2CCN(C)C)n2c1c(CCN(C)C)c1ccccc12 [flinderole B],show effectiveness toward chloroquine-resistant falciparum strains
5,CC(C)=C[C@H]1C[C@@](C)(/C=C/c2[nH]c3ccccc3c2CCN(C)C)n2c1c(CCN(C)C)c1ccccc12 [flinderole C],show effectiveness toward chloroquine-resistant falciparum strains
6,CNCCc1c(C2C3C(C=C(C)CC3(C)C)c3c(CCNC)c4ccccc4n32)[nH]c2ccccc12 (stereo not shown) [isoborreverine],show effectiveness toward chloroquine-resistant falciparum strains
7,dimethylisoborreverine,show effectiveness toward chloroquine-resistant falciparum strains
